Assay results reported in US9661854B2, “Molecules having pesticidal utility, and intermediates, compositions, and processes, related thereto” (Dow AgroSciences LLC, priority 2015, dated 2017).

Key:
[1] = test system: Beet Armyworm (Spodoptera exigua, LAPHEG); assay: Bioassay on Beet Armyworm (BAW), 128-well diet tray assay; format: in vivo; details: 168 h, 50 μg/cm^2 on artificial diet, second instar larvae, 25° C., five to seven days, average of eight wells, read-out: BAW % Control (or Mortality) rating
Description: (§1) Example A: Bioassays on Beet Armyworm (Spodoptera exigua, LAPHEG) (“BAW”) and Cabbage Looper (Trichoplusia ni, TRIPNI) (“CL”)
(§2) Certain molecules disclosed in this document were tested against BAW and CL using procedures described in the following examples. In the reporting of the results, the “BAW & CL Rating Table” was used (See Table Section).
Bioassays on BAW were conducted using a 128-well diet tray assay. One to five second instar BAW larvae were placed in each well (3 mL) of the diet tray that had been previously filled with 1 mL of artificial diet to which 50 μg/cm^2 of the test molecule (dissolved in 50 μL of 90:10 acetone-water mixture) had been applied (to each of eight wells) and then allowed to dry. Trays were covered with a clear self-adhesive cover, vented to allow gas exchange, and held at 25° C., 14:10 light-dark for five to seven days. Percent mortality was recorded for the larvae in each well; activity in the eight wells was then averaged. The results are indicated in the table entitled “Table ABC: Biological Results” (See Table Section).

[2] = test system: Cabbage Looper (Trichoplusia ni, TRIPNI); assay: Bioassay on Cabbage Looper (CL), 128-well diet tray assay; format: in vivo; details: 168 h, 50 μg/cm^2 on artificial diet, second instar larvae, 25° C., five to seven days, average of eight wells, read-out: CL % Control (or Mortality) rating
Description: as §1, §2
Bioassays on CL were conducted using a 128-well diet tray assay. One to five second instar CL larvae were placed in each well (3 mL) of the diet tray that had been previously filled with 1 mL of artificial diet to which 50 μg/cm^2 of the test molecule (dissolved in 50 μL of 90:10 acetone-water mixture) had been applied (to each of eight wells) and then allowed to dry. Trays were covered with a clear self-adhesive cover, vented to allow gas exchange, and held at 25° C., 14:10 light-dark for five to seven days. Percent mortality was recorded for the larvae in each well; activity in the eight wells was then averaged. The results are indicated in the table entitled “Table ABC: Biological Results” (See Table Section).

Row | SMILES | mortality at 50 µg/cm2 [1] | mortality at 50 µg/cm2 [2]
1 | Cc1ccc(Cl)c(N2C(=O)CS/C2=N\C(=O)Nc2ccc(/C=C/c3ncn(-c4ccc(OC(F)(F)F)cc4)n3)cc2)c1 [F44, 1-((Z)-3-(2-Chloro-5-methylphenyl)-4-oxothiazolidin-2-ylidene)-3-(4-((E)-2-(1-(4-(trifluoromethoxy)phenyl)-1H-1,2,4-triazol-3-yl)vinyl)phenyl)urea] | 50 to 100% | 50 to 100%
2 | CCCc1ccc(C)cc1N1C(=O)CS/C1=N\C(=O)Nc1ccc(/C=C/c2ncn(-c3ccc(OC(F)(F)F)cc3)n2)cc1 [F45, 1-((Z)-3-(5-Methyl-2-propylphenyl)-4-oxothiazolidin-2-ylidene)-3-(4-((E)-2-(1-(4-(trifluoromethoxy)phenyl)-1H-1,2,4-triazol-3-yl)vinyl)phenyl)urea] | 50 to 100% | 50 to 100%
3 | CCOc1ccc(C)cc1N1C(=O)CS/C1=N\C(=O)Nc1ccc(/C=C/c2ncn(-c3ccc(OC(F)(F)F)cc3)n2)cc1 [F46, 1-((Z)-3-(2-Ethoxy-5-methylphenyl)-4-oxothiazolidin-2-ylidene)-3-(4-((E)-2-(1-(4-(trifluoromethoxy)phenyl)-1H-1,2,4-triazol-3-yl)vinyl)phenyl)urea] | 50 to 100% | 50 to 100%
4 | Cc1cc(N2C(=O)CS/C2=N\C(=O)Nc2ccc(/C=C/c3ncn(-c4ccc(OC(F)(F)F)cc4)n3)cc2)c(C(C)C)cc1F [F47, 1-((Z)-3-(4-Fluoro-2-isopropyl-5-methylphenyl)-4-oxothiazolidin-2-ylidene)-3-(4-((E)-2-(1-(4-(trifluoromethoxy)phenyl)-1H-1,2,4-triazol-3-yl)vinyl)phenyl)urea] | 50 to 100% | 50 to 100%
5 | CCC(C)Oc1ccc(C)cc1N1C(=O)CS/C1=N\C(=O)Nc1ccc(/C=C/c2ncn(-c3ccc(OC(F)(F)F)cc3)n2)cc1 (stereo not shown) [F48, 1-((Z)-3-(2-(sec-Butoxy)-5-methylphenyl)-4-oxothiazolidin-2-ylidene)-3-(4-((E)-2-(1-(4-(trifluoromethoxy)phenyl)-1H-1,2,4-triazol-3-yl)vinyl)phenyl)urea] | 50 to 100% | 50 to 100%
6 | Cc1ccc(OC(C)C)c(N2C(=O)CS/C2=N\C(=O)Nc2ccc(/C=C/c3ncn(-c4ccc(OC(F)(F)F)cc4)n3)cc2)c1 [F49, 1-((Z)-3-(2-Isopropoxy-5-methylphenyl)-4-oxothiazolidin-2-ylidene)-3-(4-((E)-2-(1-(4-(trifluoromethoxy)phenyl)-1H-1,2,4-triazol-3-yl)vinyl)phenyl)urea] | 50 to 100% | 50 to 100%
7 | Cc1ccc(OC(F)(F)F)c(N2C(=O)CS/C2=N\C(=O)Nc2ccc(/C=C/c3ncn(-c4ccc(OC(F)(F)F)cc4)n3)cc2)c1 [F50, 1-((Z)-3-(5-Methyl-2-(trifluoromethoxy)phenyl)-4-oxothiazolidin-2-ylidene)-3-(4-((E)-2-(1-(4-(trifluoromethoxy)phenyl)-1H-1,2,4-triazol-3-yl)vinyl)phenyl)urea] | 50 to 100% | 50 to 100%
8 | Cc1ccc(OCC(F)(F)F)c(N2C(=O)CS/C2=N\C(=O)Nc2ccc(/C=C/c3ncn(-c4ccc(OC(F)(F)F)cc4)n3)cc2)c1 [F51, 1-((Z)-3-(5-Methyl-2-(2,2,2-trifluoroethoxy)phenyl)-4-oxothiazolidin-2-ylidene)-3-(4-((E)-2-(1-(4-(trifluoromethoxy)phenyl)-1H-1,2,4-triazol-3-yl)vinyl)phenyl)urea] | 50 to 100% | 50 to 100%
9 | Cc1ccc(OC(C)(C)C)c(N2C(=O)CS/C2=N\C(=O)Nc2ccc(/C=C/c3ncn(-c4ccc(OC(F)(F)F)cc4)n3)cc2)c1 [F52, 1-((Z)-3-(2-(tert-Butoxy)-5-methylphenyl)-4-oxothiazolidin-2-ylidene)-3-(4-((E)-2-(1-(4-(trifluoromethoxy)phenyl)-1H-1,2,4-triazol-3-yl)vinyl)phenyl)urea] | 50 to 100% | 50 to 100%
10 | COCc1ccc(C)cc1N1C(=O)CS/C1=N\C(=O)Nc1ccc(/C=C/c2ncn(-c3ccc(OC(F)(F)F)cc3)n2)cc1 [F53, 1-((Z)-3-(2-(Methoxymethyl)-5-methylphenyl)-4-oxothiazolidin-2-ylidene)-3-(4-((E)-2-(1-(4-(trifluoromethoxy)phenyl)-1H-1,2,4-triazol-3-yl)vinyl)phenyl)urea] | 50 to 100% | 50 to 100%
11 | COC(=O)c1cc(/C=C/c2ncn(-c3ccc(OC(F)(F)F)cc3)n2)ccc1NC(=O)/N=C1\SCC(=O)N1c1cc(C)ccc1C(C)C [F54, Methyl 2-(3-((Z)-3-(2-isopropyl-5-methylphenyl)-4-oxothiazolidin-2-ylidene)ureido)-5-((E)-2-(1-(4-(trifluoromethoxy)phenyl)-1H-1,2,4-triazol-3-yl)vinyl)benzoate] | 50 to 100% | 50 to 100%
12 | Cc1ccc(C(C)C)c(N2C(=O)CS/C2=N\C(=O)Nc2ccc(/C=C/c3ncn(-c4ccc(OC(F)(F)F)cc4)n3)cc2F)c1 [F55, 1-(2-Fluoro-4-((E)-2-(1-(4-(trifluoromethoxy)phenyl)-1H-1,2,4-triazol-3-yl)vinyl)phenyl)-3-((Z)-3-(2-isopropyl-5-methylphenyl)-4-oxothiazolidin-2-ylidene)urea] | 50 to 100% | 50 to 100%
13 | Cc1ccc(C(C)C)c(N2C(=O)CS/C2=N\C(=O)Nc2ccc(/C=C/c3ncn(-c4ccc(OC(F)(F)F)cc4)n3)cc2Cl)c1 [F56, 1-(2-chloro-4-((E)-2-(1-(4-(trifluoromethoxy)phenyl)-1H-1,2,4-triazol-3-yl)vinyl)phenyl)-3-((Z)-3-(2-isopropyl-5-methylphenyl)-4-oxothiazolidin-2-ylidene)urea] | 50 to 100% | 50 to 100%
14 | Cc1ccc(C(C)C)c(N2C(=O)CS/C2=N\C(=O)Nc2c(F)cc(/C=C/c3ncn(-c4ccc(OC(F)(F)F)cc4)n3)cc2F)c1 [F57, 1-(2,6-difluoro-4-((E)-2-(1-(4-(trifluoromethoxy)phenyl)-1H-1,2,4-triazol-3-yl)vinyl)phenyl)-3-((Z)-3-(2-isopropyl-5-methylphenyl)-4-oxothiazolidin-2-ylidene)urea] | 50 to 100% | 50 to 100%
15 | COc1cc(/C=C/c2ncn(-c3ccc(OC(F)(F)F)cc3)n2)ccc1NC(=O)/N=C1\SCC(=O)N1c1cc(C)ccc1C(C)C [F58, 1-((Z)-3-(2-isopropyl-5-methylphenyl)-4-oxothiazolidin-2-ylidene)-3-(2-methoxy-4-((E)-2-(1-(4-(trifluoromethoxy)phenyl)-1H-1,2,4-triazol-3-yl)vinyl)phenyl)urea] | 50 to 100% | 50 to 100%
16 | COCc1ccc(C)cc1N1C(=O)CS/C1=N\C(=O)Nc1ccc(/C=C/c2ncn(-c3ccc(OC(F)(F)F)cc3)n2)cc1F [F59, 1-(2-Fluoro-4-((E)-2-(1-(4-(trifluoromethoxy)phenyl)-1H-1,2,4-triazol-3-yl)vinyl)phenyl)-3-((Z)-3-(2-(methoxymethyl)-5-methylphenyl)-4-oxothiazolidin-2-ylidene)urea] | 50 to 100% | 50 to 100%
17 | Cc1ccc(C(C)C)c(N2C(=O)CS/C2=N\C(=O)Nc2ccc(/C=C/c3ncn(-c4ccc(OC(F)(F)F)cc4)n3)c(F)c2)c1 [F61, 1-(3-fluoro-4-((E)-2-(1-(4-(trifluoromethoxy)phenyl)-1H-1,2,4-triazol-3-yl)vinyl)phenyl)-3-((Z)-3-(2-isopropyl-5-methylphenyl)-4-oxothiazolidin-2-ylidene)urea] | 50 to 100% | 50 to 100%
18 | Cc1ccc(C(C)C)c(N2C(=O)CS/C2=N\C(=O)Nc2ccc(/C=C/c3ncn(-c4ccc(OC(F)(F)F)cc4)n3)cc2C(F)(F)F)c1 [F62, 1-((Z)-3-(2-isopropyl-5-methylphenyl)-4-oxothiazolidin-2-ylidene)-3-(4-((E)-2-(1-(4-(trifluoromethoxy)phenyl)-1H-1,2,4-triazol-3-yl)vinyl)-2-(trifluoromethyl)phenyl)urea] | 50 to 100% | 50 to 100%
19 | CCCc1ccc(C)cc1N1C(=O)CS/C1=N\C(=O)Nc1ccc(/C=C/c2ncn(-c3ccc(OC(F)(F)F)cc3)n2)cc1F [F63, 1-(2-Fluoro-4-((E)-2-(1-(4-(trifluoromethoxy)phenyl)-1H-1,2,4-triazol-3-yl)vinyl)phenyl)-3-((Z)-3-(5-methyl-2-propylphenyl)-4-oxothiazolidin-2-ylidene)urea] | 50 to 100% | 50 to 100%
20 | CC(C)c1ccc(C(F)(F)F)cc1N1C(=O)CS/C1=N\C(=O)Nc1ccc(/C=C/c2ncn(-c3ccc(OC(F)(F)F)cc3)n2)cc1F [F64, 1-(2-fluoro-4-((E)-2-(1-(4-(trifluoromethoxy)phenyl)-1H-1,2,4-triazol-3-yl)vinyl)phenyl)-3-((Z)-3-(2-isopropyl-5-(trifluoromethyl)phenyl)-4-oxothiazolidin-2-ylidene)urea] | 50 to 100% | 50 to 100%
